Measured values as given in EP4729519A1, “CRYSTAL FORM OF ENPP1 INHIBITOR” (CSPC Zhongqi Pharmaceutical Technology (Shijiazhuang) Co., …, priority 2023, dated 2024).
pIC50: −log10 of the molar value. Like-named read-outs stand apart in the source and are kept apart here.

Columns and labels:
[1] = tested on: SD rat model of myocardial ischemia; assay: Rat myocardial ischemia model (LAD ligation), echocardiography and Masson staining; format: in vivo; conditions: rats; for reduction of the degree of fibrosis compared with the vehicle control group: Masson staining
Method: This study aimed to evaluate the pharmacodynamic effect of the compound of formula (I) in a SD rat model of myocardial ischemia.
After the animals had acclimated to the facility for one week, the model was established by ligation of the left anterior descending coronary artery (LAD). After model establishment, the rats were administered penicillin (80,000 units/rat, i.m.) for 3 days, and disinfected to prevent infection.
One day after model establishment, the modeled animals were randomly divided into 4 groups according to the baseline body weight and echocardiographic imaging indicators, with 4 animals in each sham group (Sham) and 6 animals in each myocardial infarction model group (MI), and drug administration was then initiated. The control group was given the blank vehicle: 5% DMSO + 45% PEG400 + 50% H2O (1% CMC-Na). The experimental groups were administered by oral gavage at doses of 30 mg/kg and 75 mg/kg, respectively, twice daily for 28 consecutive days. The body weights of the animals were monitored daily after administration, and echocardiographic imaging indicators were measured on days 7 and 28. The primary indicators of echocardiographic evaluation were left ventricular fractional shortening (FS) and left ventricular ejection fraction (LVEF). After the echocardiographic measurement on day 28, heart tissues were collected in a tissue fixative for pathological analysis by Masson's trichrome staining.

[2] = Pharmacokinetic test in mice, plasma concentration by LC-MS/MS; format: in vivo, CD-1 male mice; conditions: male, CD-1, mouse; for AUC(0-t): read-out: AUC0-24h
[3] = tested on: pancreatic cancer Pan02 cells; assay: Mouse subcutaneous homograft tumour model of pancreatic cancer Pan02; format: in vivo, C57BL/6 mice; conditions: 20 mg/kg oral gavage twice daily
Method: • 1. Experimental Objective: The in vivo efficacy of the test drug in the mouse subcutaneous homograft tumour model of pancreatic cancer Pan02 cells was evaluated. • 2. Experimental Methods • 2.1 Cell Culture Mouse pancreatic cancer Pan02 cells were cultured in monolayer in vitro in DMEM medium supplemented with 10% fetal bovine serum, 0.01 mg/mL sinsulin, 1% penicillin/streptomycin/amphotericin B in an incubator at 37 °C with 5% CO2. When the cell saturation was 80%-90% and the number reached the requirement, the cells were harvested, counted, and inoculated. • 2.2 Animals C57BL/6 mice, female, 6-8 weeks old, weighing 18-22 g. The mice were provided by Shanghai Xipu-Bikai Laboratory Animal Co., Ltd., or other suppliers. • 2.3 Tumour Inoculation and Animal Grouping and administration 0.1 Milliliter of Pan02 cells (5×10^6 cells) were inoculated subcutaneously into the right hind back of each mouse, and animal grouping and administration began when the average tumour volume reached about 100-200 mm^3. Animals were weighed and tumour volumes were measured before administration. Mice were randomly divided into groups based on the tumour volume, with 8 mice in each group. […] Tumor volume was calculated using the formula: V=0.5a×b^2, where a and b represented the long and short diameters of the tumour, respectively. […]

[4] = tested on: C57 BL/6 mouse model of myocardial ischemia; assay: Mouse myocardial ischemia model (LAD ligation), echocardiography and Masson staining; format: in vivo; conditions: mice; for reduction of the degree of fibrosis compared with the vehicle control group: Masson staining; for increase of left ventricular ejection fraction (LVEF) compared with the vehicle control group / increase of left ventricular fractional shortening (FS) compared with the vehicle control group: day 1; for increase of left ventricular ejection fraction (LVEF) / increase of left ventricular fractional shortening (FS): day 7
Description: This study aimed to evaluate the pharmacodynamic effect of the compound of formula (I) in a C57 BL/6 mouse model of myocardial ischemia.
After the animals had acclimated to the facility for one week, they were divided into four groups based on their body weights on the day before surgery, with 6 animals in the sham group (Sham) and 8 animals in the model group (MI). On the next day, the animals underwent myocardial ischemia surgery for modeling (the mice in the Sham group only underwent thoracotomy and threading without ligation). The model was established by ligation of the left anterior descending coronary artery (LAD). After model establishment, the mice were administered penicillin (20,000 units/mouse, i.m.) for 3 days, and disinfected to prevent infection.
Each group of animals was administered the corresponding compounds one hour before surgery. The control group (Vehicle) was administered the vehicle: 5% DMSO+45% PEG400+50% H2O (1% CMC-Na). The experimental groups were administered by oral gavage at doses of 4 mg/kg and 20 mg/kg, respectively, twice daily for 28 consecutive days. The body weights of the animals were monitored daily after administration, and echocardiographic imaging indicators were measured on days 1, 7 and 28. The primary indicators of echocardiographic evaluation were left ventricular fractional shortening (FS) and left ventricular ejection fraction (LVEF). After the echocardiographic measurement on day 28, heart tissues were collected in a tissue fixative for pathological analysis by Masson's trichrome staining.

hENPP1 enzyme = target: T1, hENPP1 enzyme (Homo sapiens, UniProt P22413); assay: ENPP1 enzymatic inhibition test in vitro (TMP-pNP hydrolysis, OD405); format: biochemical; conditions: TMP-pNP substrate, pH 9.5, 37 °C, 0.5 h
T1 sequence (P22413 1-925): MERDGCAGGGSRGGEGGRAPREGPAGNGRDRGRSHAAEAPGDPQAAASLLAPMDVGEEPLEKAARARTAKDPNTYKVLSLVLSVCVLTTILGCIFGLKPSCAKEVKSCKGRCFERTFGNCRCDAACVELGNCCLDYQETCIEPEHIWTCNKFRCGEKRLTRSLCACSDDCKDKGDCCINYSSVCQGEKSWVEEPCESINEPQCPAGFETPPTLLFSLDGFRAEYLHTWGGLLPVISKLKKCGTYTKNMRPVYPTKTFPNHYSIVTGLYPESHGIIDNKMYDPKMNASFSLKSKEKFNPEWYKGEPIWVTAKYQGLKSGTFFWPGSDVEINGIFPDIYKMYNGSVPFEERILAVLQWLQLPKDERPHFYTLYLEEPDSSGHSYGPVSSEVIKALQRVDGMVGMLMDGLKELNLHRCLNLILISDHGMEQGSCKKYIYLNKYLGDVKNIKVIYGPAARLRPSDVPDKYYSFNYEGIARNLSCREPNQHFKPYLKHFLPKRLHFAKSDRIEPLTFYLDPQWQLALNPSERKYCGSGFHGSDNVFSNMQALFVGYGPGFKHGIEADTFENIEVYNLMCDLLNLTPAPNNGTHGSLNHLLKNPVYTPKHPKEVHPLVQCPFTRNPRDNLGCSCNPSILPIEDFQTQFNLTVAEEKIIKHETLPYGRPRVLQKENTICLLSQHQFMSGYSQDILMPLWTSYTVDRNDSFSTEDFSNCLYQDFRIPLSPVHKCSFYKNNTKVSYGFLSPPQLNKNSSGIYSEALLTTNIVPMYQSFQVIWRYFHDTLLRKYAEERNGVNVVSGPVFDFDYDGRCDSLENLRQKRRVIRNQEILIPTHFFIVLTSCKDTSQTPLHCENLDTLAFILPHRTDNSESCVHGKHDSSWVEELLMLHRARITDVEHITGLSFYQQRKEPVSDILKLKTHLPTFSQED
Description: ENPP1 is a transmembrane glycoprotein capable of hydrolyzing nucleotides and derivatives with nucleotide-5'-monophosphate structures. ENPP1 is capable of hydrolyzing artificially synthesized 5'-p-nitrophenyl monophosphate (TMP-pNP) into nucleotide 5'-monophosphate and p-nitrophenol, while p-nitrophenol is a chromogenic product. The production amount of p-nitrophenol product can be directly measured by its absorbance at 405 nm, which is directly proportional to the enzyme activity.
100X serial gradient dilutions of compound were prepared with DMSO, starting from a stock concentration of 1 mM, and using a 4-fold serial gradient dilution to make 10 concentration points. 300 Nanoliter of compounds at gradient concentrations were transferred to a 384-well assay plate (final concentration: starting at 10 µM, 4-fold serial gradient dilution, 10 concentration points) by using Echo. First, 15 µL of 0.2 ng/uL hENPP1 enzyme (2× final concentration) prepared in an assay buffer (250 mM NaCl, 50 mM Tris, pH = 9.5) was added to each well. […] After incubation at 37 °C for 0.5 h, the OD405 nm value was read by the microplate reader. The percentage of inhibition rate was calculated using the formula: %Inhibition Rate=(ODhigh signal control - ODsample well) / (ODhigh signal control - ODlow signal control)*100. The IC50 value was calculated using four-parameter fitting. […]

[5] = 30mpk oral gavage twice daily, 7th day
[6] = 30mpk oral gavage twice daily, day 28
[7] = 75mpk oral gavage twice daily, 7th day
[8] = 75mpk oral gavage twice daily, day 28

For COc1ccc2c3c(cnc2n1)COC(=O)N3Cc1c(F)cc(S(N)(=O)=O)cc1F [Compound of Formula (I), 3,5-difluoro-4-((8-methoxy-2-oxo-2H-[1,3]oxazino[5,4-c][1,8]naphthyridin-1(4H)-yl)methyl)benzenesulfonamide], the “reduction of the degree of fibrosis compared with the vehicle control group” value (shortened to “reduction of the degree of fibrosis”) ([1]; 30 mg/kg twice daily, 28 days) was 5.2%, the “reduction of the degree of fibrosis” value ([1]; 75 mg/kg twice daily, 28 days) was 6.5% and the “effect on body weight” value ([1]; 30 and 75 mg/kg twice daily, 28 days) was “no significant effect on body weight”. The “increase of LVEF” value [1, 5] was 11.43%, the “increase of left ventricular fractional shortening (FS)” value [1, 5] was 9.73% and the “increase of LVEF” value [1, 6] was 18.75%. For the same molecule, the “increase of left ventricular fractional shortening (FS)” value [1, 6] was 13.01%, the “increase of LVEF” value [1, 7] was 18.85% and the “increase of left ventricular fractional shortening (FS)” value [1, 7] was 12.62%. For the same molecule, the “increase of LVEF” value [1, 8] was 23.8%, the “increase of left ventricular fractional shortening (FS)” value [1, 8] was 15.88% and the clearance ([2]; 2 mg/kg, IV, 2mpk) was 3.2 mL/min/kg. The half-life ([2]; 2 mg/kg, IV, 2mpk) was 5.35 h, the AUC(0-t) ([2]; 2 mg/kg, IV, 2mpk) was 10000 ng·h/mL and the Vd ([2]; 2 mg/kg, IV, 2mpk, read-out: Vss) was 1.08 L/kg. For the same molecule, the Cmax ([2]; 10 mg/kg, PO, 10mpk) was 8080 ng/mL, the Tmax ([2]; 10 mg/kg, PO, 10mpk) was 2 h and the half-life ([2]; 10 mg/kg, PO, 10mpk) was 3.5 h. The AUC(0-t) ([2]; 10 mg/kg, PO, 10mpk) was 47800 ng·h/mL, the “effect on the body weight of the mice” value ([3]; 16 days) was “no inhibitory effect on the body weight” and the TGI ([3]; after administration for 16 days, p<0.05 vs control group) was 43.4%. For the same molecule, the “reduction of the degree of fibrosis” value ([4]; 4 mg/kg twice daily, 28 days) was 8.8%, the “reduction of the degree of fibrosis” value ([4]; 20 mg/kg twice daily, 28 days) was 9.6% and the “effect on body weight” value ([4]; 4 and 20 mg/kg twice daily, 28 days) was “without any significant effect on body weight”. The “increase of left ventricular ejection fraction (LVEF) compared with the vehicle control group” value ([4]; 4 mpk oral gavage twice daily) was 15%, the “increase of left ventricular fractional shortening (FS) compared with the vehicle control group” value ([4]; 4 mpk oral gavage twice daily) was 7% and the “increase of left ventricular ejection fraction (LVEF)” value ([4]; 4 mpk oral gavage twice daily) was 23.4%. For the same molecule, the “increase of left ventricular fractional shortening (FS)” value ([4]; 4 mpk oral gavage twice daily) was 12.2%, the “increase of left ventricular ejection fraction (LVEF) compared with the vehicle control group” value ([4]; 20 mpk oral gavage twice daily) was 10% and the “increase of left ventricular fractional shortening (FS) compared with the vehicle control group” value ([4]; 20 mpk oral gavage twice daily) was 5%. For the same molecule, the “increase of left ventricular ejection fraction (LVEF)” value ([4]; 20 mpk oral gavage twice daily) was 23.3%, the “increase of left ventricular fractional shortening (FS)” value ([4]; 20 mpk oral gavage twice daily) was 12.3% and the “LVEF and FS in the left ventricle” value ([4]; day 28, vehicle control group further deteriorated) was “further maintained the LVEF and FS”. It also gave a pIC50 (hENPP1 enzyme) of 10.30.
